Eleven compounds from patent US11986471B2, “Compounds and methods of use” (Tango Therapeutics, Inc., priority 2018, dated 2024) can be followed below.

Some results are limits rather than exact numbers.

For orientation: IC50 means the concentration that gives 50% inhibition.

Assay [1] deals with T1, PRMT5 (Homo sapiens, UniProt O14744).
T1 construct: purchased Viva (custom protein)
Kind of assay: PRMT5 IC50 assay in the presence of SAM as cofactor. In kind it is biochemical. Put shortly: (§1)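 IC50 against PRMT5 determined with SAM as cofactor, with no cofactor, and with MTA as cofactor. Ki derived as IC50/1.5 for the SAM assay and IC50/13.5 for the MTA assay; SAM Ki to MTA Ki ratio also reported.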

Assay [2] deals with T1, PRMT5. The assay can be described thus: PRMT5 IC50 assay with no cofactor. In kind it is biochemical. Put shortly:
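Ki conversion: SAM arm, Ki=IC50/1.5; MTA arm, Ki=IC50/13.5. No-cofactor arm reported as IC50 only. Selectivity expressed as Ki(SAM)/Ki(MTA).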

Assay [3] addresses T1, PRMT5. Kind of assay: PRMT5 IC50 assay in the presence of MTA as cofactor. The following applies: for IC50: PRMT5, MTA as cofactor. The class given is biochemical. Put shortly: as §1
In assay [4] the test system is HAP1 MTAP-intact. The assay can be described thus: SDMA in-cell western assay, HAP1 MTAP-intact cell line. The class given is cell-based. The following applies: Homo sapiens. Put shortly:
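Symmetric dimethylarginine (SDMA) levels were measured by in-cell western in an isogenic HAP1 pair, one expressing endogenous MTAP and one MTAP-null, and IC50 values were derived for each line. Compounds whose IC50 ratio between the lines is 3-fold or more are classed as MTAP-selective.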

Assay [5] concerns HAP1 MTAP-deleted. The assay can be described thus: SDMA in-cell western assay, HAP1 MTAP-deleted cell line. In kind it is cell-based. The following applies: for IC50: Homo sapiens, HAP1 MTAP-deleted cell line; for MTAP Intact/Deleted Ratio: IC50 ratio HAP1 MTAP-intact / HAP1 MTAP-deleted. Put shortly: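 Symmetric dimethylarginine (SDMA) levels were measured by in-cell western in MTAP-null HAP1 cells, one half of an MTAP-isogenic pair whose partner line expresses endogenous MTAP. Compound potency is reported as IC50.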

[6] abbreviates: ratio between the Ki in the presence of SAM and the Ki in the presence of MTA.
Setting [7] is: ratio between Ki in the presence of SAM and Ki in the presence of MTA.

T1 sequence (O14744 whole entry): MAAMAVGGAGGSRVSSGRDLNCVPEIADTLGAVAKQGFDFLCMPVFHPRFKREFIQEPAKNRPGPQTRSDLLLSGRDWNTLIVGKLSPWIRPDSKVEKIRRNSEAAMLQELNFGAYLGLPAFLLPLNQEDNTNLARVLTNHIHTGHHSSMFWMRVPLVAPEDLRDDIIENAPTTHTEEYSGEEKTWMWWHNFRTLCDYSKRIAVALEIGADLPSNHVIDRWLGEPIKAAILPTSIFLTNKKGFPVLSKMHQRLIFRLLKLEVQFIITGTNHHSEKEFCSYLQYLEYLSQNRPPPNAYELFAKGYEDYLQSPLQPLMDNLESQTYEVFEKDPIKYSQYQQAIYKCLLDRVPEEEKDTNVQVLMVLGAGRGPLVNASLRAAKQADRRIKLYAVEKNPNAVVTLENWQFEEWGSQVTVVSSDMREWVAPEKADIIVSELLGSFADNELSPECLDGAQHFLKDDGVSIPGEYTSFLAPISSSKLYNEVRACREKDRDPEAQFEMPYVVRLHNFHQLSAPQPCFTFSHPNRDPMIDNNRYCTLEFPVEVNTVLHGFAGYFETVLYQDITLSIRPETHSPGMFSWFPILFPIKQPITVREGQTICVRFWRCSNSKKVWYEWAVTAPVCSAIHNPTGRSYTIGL
T1 sequence (Q9BQA1 whole entry partner): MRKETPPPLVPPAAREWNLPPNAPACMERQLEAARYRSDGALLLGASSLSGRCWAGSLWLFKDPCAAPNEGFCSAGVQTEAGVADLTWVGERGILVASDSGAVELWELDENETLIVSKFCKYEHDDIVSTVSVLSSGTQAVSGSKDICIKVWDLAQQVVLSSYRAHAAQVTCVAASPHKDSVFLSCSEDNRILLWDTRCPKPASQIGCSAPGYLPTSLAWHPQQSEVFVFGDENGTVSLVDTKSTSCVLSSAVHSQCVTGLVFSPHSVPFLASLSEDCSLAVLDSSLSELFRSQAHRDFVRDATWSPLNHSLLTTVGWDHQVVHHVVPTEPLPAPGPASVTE

Take `Cc1ncoc1COc1ccc2c(c1)CCN(C[C@@H](O)CNC(=O)c1cc(NC3COC3)nc(N3CCN(C(C)C)CC3)n1)C2` [Compound 492, N-[(2S)-2-hydroxy-3-{6-[(4-methyl-1,3-oxazol-5-yl)methoxy]-1,2,3,4-tetrahydroisoquinolin-2-yl}propyl]-6-[(oxetan-3-yl)amino]-2-[4-(propan-2-yl)piperazin-1-yl]pyrimidine-4-carboxamide]: the IC50 in assay [1] was 50 to 500 nM; in assay [2], at least 5000 nM; in assay [3], 50 to 500 nM; in assay [4] it was 1000 to 10000 nM; in assay [5], 1000 to 10000 nM. The “SAM/MTA Ratio” value in assay [3] (setting [6]) is “A (a Ki ratio greater than or equal to 10 fold between the Ki in the presence of SAM and the Ki in the presence of MTA)”. Further, the “MTAP Intact/Deleted Ratio” value in assay [5] was “C* (an IC50 ratio of less than 3 fold between the IC50 in the HAP1 MTAP-intact cell line and the HAP1 MTAP-deleted cell line)”.
Turning to `O=C(NC[C@H](O)CN1CCc2cc(OCc3cnco3)ccc2C1)c1cccc(NC2CCC2)c1` [Compound 259, (S)-3-(cyclobutylamino)-N-(2-hydroxy-3-(6-(oxazol-5-ylmethoxy)-3,4-dihydroisoquinolin 2(1H)-yl)propyl)benzamide], the IC50 in assay [1] is 500 to 5000 nM; in assay [2] (read-out: No Co-factor IC50), at least 5000 nM; in assay [3], 500 to 5000 nM; in assay [4], below 1000 nM; in assay [5] it was below 1000 nM. Also, in assay [3] (setting [7]), the “SAM/MTA Ratio” value is “A (a Ki ratio greater than or equal to 10 fold between the Ki in the presence of SAM and the Ki in the presence of MTA)”. In addition, the “MTAP Intact/Deleted Ratio” value in assay [5] was “C* (an IC50 ratio of less than 3 fold between the IC50 in the HAP1 MTAP-intact cell line and the HAP1 MTAP-deleted cell line)”.
Take `Cc1ncoc1COc1ccc2c(c1C)CCN(C[C@@H](O)CNC(=O)c1ccnc(NC3CCC3)c1)C2` [Compound 272, (S)-2-(cyclobutylamino)-N-(2-hydroxy-3-[5-methyl-6-((4-methyloxazol-5-yl)methoxy)-3N-dihydroisoquinolin-2(1H)-yl)propyl)isonicotinamide]: the IC50 in assay [1] is 50 to 500 nM; in assay [2] (read-out: No Co-factor IC50) it was at least 5000 nM; in assay [3] it was 50 to 500 nM; in assay [4] it was at least 10000 nM; in assay [5] it was 1000 to 10000 nM. In assay [3] (setting [7]), the “SAM/MTA Ratio” value was “A (a Ki ratio greater than or equal to 10 fold between the Ki in the presence of SAM and the Ki in the presence of MTA)”. In assay [5], the “MTAP Intact/Deleted Ratio” value was “C* (an IC50 ratio of less than 3 fold between the IC50 in the HAP1 MTAP-intact cell line and the HAP1 MTAP-deleted cell line)”.
With `CC(=O)N1CCC(Nc2cc(C(=O)NC[C@H](O)CN3CCc4cc(OCc5ocnc5C)ccc4C3)ncn2)CC1` [Compound 219, (S)-6-((1-acetylpiperidin-4-yl)amino)-N-(2-hydroxy-3-(6-((4-methyloxazol-5-yl)methoxy)-3,4-dihydroisoquinolin-2(1H)-yl)propyl)pyrimidine-4-carboxamide], the IC50 in assay [1] was 50 to 500 nM; in assay [2] (read-out: No Co-factor IC50) it was at least 5000 nM; in assay [3] it was 50 to 500 nM; in assay [4], 1000 to 10000 nM; in assay [5], below 1000 nM. In assay [3] (setting [7]), the “SAM/MTA Ratio” value is “A (a Ki ratio greater than or equal to 10 fold between the Ki in the presence of SAM and the Ki in the presence of MTA)”. The “MTAP Intact/Deleted Ratio” value in assay [5] is “B* (an IC50 ratio greater than or equal to 3 fold but lower than 10 fold between the IC50 in the HAP1 MTAP-intact cell line and the HAP1 MTAP-deleted cell line)”.
On to `Cn1nccc1COc1ccc2c(c1Cl)CCN(C[C@@H](O)CNC(=O)c1ccnc(NC3CCCC3)c1)C2` [Compound 275, (S)—N-(3-(5-chloro-6-((1-methyl-1H-pyrazol-5-yl)methoxy)-3,4-dihydroisoquinolin-2(1H)-yl)-2-hydroxypropyl)-2-(cyclopentylamino)isonicotinamide], for which the IC50 in assay [1] is 500 to 5000 nM; in assay [2] (read-out: No Co-factor IC50), at least 5000 nM; in assay [3], 500 to 5000 nM; in assay [4], at least 10000 nM; in assay [5] it was at least 10000 nM. For the same compound, the “SAM/MTA Ratio” value in assay [3] (setting [7]) was “A (a Ki ratio greater than or equal to 10 fold between the Ki in the presence of SAM and the Ki in the presence of MTA)”. The “MTAP Intact/Deleted Ratio” value in assay [5] was “C* (an IC50 ratio of less than 3 fold between the IC50 in the HAP1 MTAP-intact cell line and the HAP1 MTAP-deleted cell line)”.
For the compound `Cc1ncoc1COc1cc2c(cc1F)CN(C[C@@H](O)CNC(=O)c1ccnc(NC3CCC3)c1)CC2` [Compound 266, (S)-2-(cyclobutylamino)-N-(3-(7-fluoro-6-((4-methyloxazol-5-yl)methoxy)-3,4-dihydroisoquinolin-2(1H)-yl)-2-hydroxypropyl)isonicotinamide], the IC50 lay within 50 to 500 nM in assay [1]; 500 to 5000 nM in assay [2] (read-out: No Co-factor IC50); 50 to 500 nM in assay [3]; 1000 to 10000 nM in assay [4]; 1000 to 10000 nM in assay [5]. Also, the “SAM/MTA Ratio” value in assay [3] (setting [7]) was “A (a Ki ratio greater than or equal to 10 fold between the Ki in the presence of SAM and the Ki in the presence of MTA)”. Besides, the “MTAP Intact/Deleted Ratio” value in assay [5] was “B* (an IC50 ratio greater than or equal to 3 fold but lower than 10 fold between the IC50 in the HAP1 MTAP-intact cell line and the HAP1 MTAP-deleted cell line)”.
For the compound `CC(=O)N1CCC(Nc2cc(C(=O)NC[C@H](O)CN3CCc4c(ccc(OCc5ocnc5C)c4C)C3)cc(N3CCN(C)CC3)n2)CC1` [Compound 593], the IC50 in assay [1] is 50 to 500 nM; in assay [2], 500 to 5000 nM; in assay [3], 50 to 500 nM; in assay [4], at least 10000 nM; in assay [5], 1000 to 10000 nM. Besides, the “SAM/MTA Ratio” value in assay [3] (setting [6]) is “A (a Ki ratio greater than or equal to 10 fold between the Ki in the presence of SAM and the Ki in the presence of MTA)”. Also, in assay [5], the “MTAP Intact/Deleted Ratio” value was “B* (an IC50 ratio greater than or equal to 3 fold but lower than 10 fold between the IC50 in the HAP1 MTAP-intact cell line and the HAP1 MTAP-deleted cell line)”.
Consider `O=C(NC[C@H](O)CN1CCc2c(ccc(OCc3cnco3)c2Cl)C1)c1ccnc(NC2CCN(C(=O)C3CC3)CC2)c1` [Compound 366, (S)—N-(3-(5-chloro-6-(oxazol-5-ylmethoxy)-3N-dihydroisoquinolin-2(1H)-yl)-2-hydroxypropyl)-2-((1-(cyclopropanecarbonyl)piperidin-4-yl)amino)isonicotinamide], for which the IC50 in assay [1] is 50 to 500 nM; in assay [2] (read-out: No Co-factor IC50), 500 to 5000 nM; in assay [3], 50 to 500 nM; in assay [4], at least 10000 nM; in assay [5], 1000 to 10000 nM. Further, the “SAM/MTA Ratio” value in assay [3] (setting [7]) is “A (a Ki ratio greater than or equal to 10 fold between the Ki in the presence of SAM and the Ki in the presence of MTA)”. Also, in assay [5], the “MTAP Intact/Deleted Ratio” value is “B* (an IC50 ratio greater than or equal to 3 fold but lower than 10 fold between the IC50 in the HAP1 MTAP-intact cell line and the HAP1 MTAP-deleted cell line)”.
For `O=C(NC[C@H](O)CN1CCc2cc(OCc3cnco3)ccc2C1)c1ccc(OC2CCN(Cc3ccncc3)CC2)cc1` [Compound 328], the IC50 is 50 to 500 nM in assay [1]; 500 to 5000 nM in assay [2] (read-out: No Co-factor IC50); 50 to 500 nM in assay [3]; 1000 to 10000 nM in assay [4]; below 1000 nM in assay [5]. In assay [3] (setting [7]), the “SAM/MTA Ratio” value is “A (a Ki ratio greater than or equal to 10 fold between the Ki in the presence of SAM and the Ki in the presence of MTA)”. In assay [5], the “MTAP Intact/Deleted Ratio” value was “C* (an IC50 ratio of less than 3 fold between the IC50 in the HAP1 MTAP-intact cell line and the HAP1 MTAP-deleted cell line)”.
`O=C(NC[C@H](O)CN1CCc2c(ccc(OCc3cnco3)c2Cl)C1)c1cc(NC2COC2)nc(N2CCN(C(=O)C3CC3)CC2)n1` [Compound 297, (S)—N-(3-(5-chloro-6-(oxazol-5-ylmethoxy)-3N-dihydroisoquinolin-2(1H)-yl)-2-hydroxypropyl)-2-(4-(cyclopropanecarbonyl)piperazin-1-yl)-6-(oxetan-3-ylamino)pyrimidine-4-carboxamide]: the half-maximal inhibitory concentration (IC50) is 50 to 500 nM in assay [1]; 500 to 5000 nM in assay [2] (read-out: No Co-factor IC50); 50 to 500 nM in assay [3]; at least 10000 nM in assay [4]; 1000 to 10000 nM in assay [5]. Also, in assay [3] (setting [7]), the “SAM/MTA Ratio” value is “A (a Ki ratio greater than or equal to 10 fold between the Ki in the presence of SAM and the Ki in the presence of MTA)”. Besides, the “MTAP Intact/Deleted Ratio” value in assay [5] was “C* (an IC50 ratio of less than 3 fold between the IC50 in the HAP1 MTAP-intact cell line and the HAP1 MTAP-deleted cell line)”.
In the case of `Cc1ncoc1COc1ccc2c(c1C)CCN(C[C@@H](O)CNC(=O)c1cc(NC3CCC3)nc(N3CCN(C(C)C)CC3)c1)C2` [Compound 539, 2-(cyclobutylamino)-N-[(2S)-2-hydroxy-3-{5-methyl-6-[(4-methyl-1,3-oxazol-5-yl)methoxy]-1,2,3,4-tetrahydroisoquinolin-2-yl}propyl]-6-[4-(propan-2-yl)piperazin-1-yl]pyridine-4-carboxamide], the IC50 is 50 to 500 nM in assay [1]; 500 to 5000 nM in assay [2]; 50 to 500 nM in assay [3]; at least 10000 nM in assay [4]; at least 10000 nM in assay [5]. In addition, the “SAM/MTA Ratio” value in assay [3] (setting [6]) was “A (a Ki ratio greater than or equal to 10 fold between the Ki in the presence of SAM and the Ki in the presence of MTA)”. For the same compound, in assay [5], the “MTAP Intact/Deleted Ratio” value was “C* (an IC50 ratio of less than 3 fold between the IC50 in the HAP1 MTAP-intact cell line and the HAP1 MTAP-deleted cell line)”.
